Measurements as given in paper PMC7504360 (International Journal of Molecular Sciences, 2020).
Square brackets hold non-standard residues; d marks the D form. Peptide text beside a SMILES is read from it.

Columns and labels:
[1] = test system: sheep red blood cells (sRBCs); assay: Hemolytic activity; assay type: cell-based; conditions: 100 μM peptide, 4% (v/v) sRBCs in PBS, 1 h at 37 °C, absorbance 405 nm; three measurements averaged
Experimental: The hemolytic activity of all Pro-peptides were tested against sheep red blood cells (sRBCs) as described in previous reports. Fresh sRBCs were washed three times with phosphate-buffered saline (PBS) followed by centrifugation for 5 min at 2500 rpm at 4 °C. Peptides (0.2 to 100 μM) in PBS were incubated with 4% (v/v) sRBCs for 1 h at 37 °C. The contents were then centrifuged for 5 min at 1000 × g. The absorbance of the supernatant at 405 nm was used as a measure of hemolysis, and three times independent measurements were averaged. As a control, 100% hemolysis was obtained by treating sRBCs with melittin.

TLR4 = assay: Immunoblot of TLR4 expression; assay type: cell-based, mouse; conditions: 20 μM peptide, LPS 50 ng/mL, RAW264.7 cells
Experimental: The protein content of all experimental groups of RAW264.7 cells in triplicate were extracted using radio immunoprecipitation buffer (RIPA) containing protease phosphatase inhibitor. The supernatant was collected by centrifugation (12,000× g) at 4 °C for 20 min and stored at −80 °C until further use. Similarly, cytoplasmic and nuclear fractionation was extracted using an NE-PER Nuclear and Cytoplasmic Extraction Reagents kit (ThermoFisher Scientific, MA, USA), according to the manufacturer’s protocol. Protein contents were quantified using a bicinchoninic acid (BCA) protein assay kit (Thermo Fisher Scientific Inc., MA, USA) and 30 μg (v/v) was electrophoresed by SDS-PAGE using a 10% (w/v) polyacrylamide resolving gel, electro-transferred to a PVDF membrane, and then blocked using 5% (w/v) non-fat milk. The membranes were incubated with primary antibodies (1:1000 dilution) at 4 °C overnight, followed by incubation with their respective secondary antibody for 1 h at room temperature. The antigen-antibody complexes were examined using the WestGlow^TM Chemiluminescent Substrate (Biomax Co., Ltd, Seoul, South Korea) under iBright™ CL1000 Imaging System (Thermo Fisher Scientific Inc., MA, USA). The densitometric analysis of protein signals were quantified using the Image J software (Version 1.52, National Institutes of Health, MD, USA).

ICR mice = assay: Cytotoxicity in vivo (serum AST, ALT, BUN); parameters: species or system mouse; conditions: single intraperitoneal dose 1 mg/kg and 5 mg/kg, 24 h, 5 mice/group
Experimental: A preliminary toxicity study was conducted to determine the cytotoxic effect of Pro10-1 and Pro10-1D on ICR mice. Four-week-old mice (n = 5) were injected intraperitoneally with peptides (1 mg/Kg and 5 mg/Kg, respectively) for 24 h. After treatment, blood was withdrawn and serum was collected and then subjected to AST, ALT, and BUN analyses.

Calcein leakage assay = conditions: 4 µM peptide, 3 min after peptide exposure, EYPE/EYPG (7:3, w/w) LUVs, pH 7.4, fluorescence ex 490/em 520 nm; triplicate
Experimental: We investigated the modes of action of the peptides by measuring their abilities to permeate model phospholipid membranes and Escherichia coli. The membrane-permeabilizing ability of the peptides was measured by monitoring the release of fluorescent calcein from liposomes of various compositions. We employed negatively-charged large unilamellar vesicles (LUVs) composed of 7:3 (w/w) egg yolk L-α-phosphatidylethanolamine (EYPE)/egg yolk L-α-phosphatidylglycerol (EYPG) to mimic gram-negative bacterial cells. The percentage of calcein leakage 3 min after peptide exposure was used to assess its ability to permeate the membrane. […] All Pro-peptides induced significant dye release against the negatively charged EYPE/EYPG LUVs, implying that they potently permeate bacterial cell component membranes. […]
Calcein-entrapped LUVs composed of egg yolk phosphatidylethanolamine (EYPE)/egg yolk phosphatidylglycerol EYPG (7:3, w/w) were prepared by vortexing the dried lipid in dye buffer solution (70 mM calcein, 10 mM Tris, 150 mM NaCl, and 0.1 mM Ethylenediaminetetraacetic acid (EDTA), pH 7.4) as described previously. The leakage of calcein from the LUVs was monitored by measuring fluorescence intensity at an excitation wavelength of 490 nm and an emission wavelength of 520 nm on a model RF-5301PC spectrophotometer (Shimadzu, Kyoto, Japan). […]

[2] = LPS neutralization, limulus amebocyte lysate (LAL) assay; assay type: biochemical, Escherichia coli O111:B4; conditions: 50 μM peptide, 20 ng/mL LPS, 30 min at 37 °C, LAL chromogenic kit, 405 nm; triplicate
Experimental: The LPS-neutralizing activity of all peptides was determined using the Pierce LAL chromogenic endotoxin quantitation kit (ThermoFisher Scientific, MA, USA). All peptides including standard (Polymixin B) at varying concentrations (3.12, 6.25, 12.5, 25, and 50 μM in endotoxin-free water) were allowed to bind with 20 ng/mL of LPS in a 96-well plate for 30 min at 37 °C. To this, an equal volume (10 μL) of LAL reagent was added and incubated for 10 min at 37 °C and then 20μL of LAL chromogenic substrate was added. After 15 min incubation at 37 °C, the reaction was stopped by 25% acetic acid and the reduction in yellow color formation due to the substrate was measured at 405 nm on an absorbance microplate reader. The experiment was conducted in triplicate, and the changes in absorbance due to peptide-LPS interaction are indicated as percent LPS neutralization.

CC[C@@H](C)[C@@H](NC(=O)[C@@H](C)NC(=O)[C@@H](CC(C)C)NC(=O)[C@@H](Cc1c[nH]c2ccccc12)NC(=O)[C@@H](CC(C)C)NC(=O)[C@@H](CCCNC(=N)N)NC(=O)[C@H](N)CCCNC(=N)N)C(=O)N[C@H](Cc1c[nH]c2ccccc12)C(=O)N[C@H](CCCNC(=N)N)C(=O)N[C@H](CCCNC(=N)N)C(N)=O [Pro10-1D] (H-[dR][dR][dL][dW][dL][dA][dI][dW][dR][dR]-NH2; N-terminus assumed)
hemolysis [1]: no hemolytic activity | LPS-induced TLR4 expression (TLR4): effectively suppressed | AST, ALT, and BUN elevation in serum (ICR mice): did not observe any clinical significance | calcein leakage (Calcein leakage assay): more than 80% | inhibition of the activation of LPS (LPS neutralization) [2]: 58.45%
